Entries after “also recorded” stand apart in the source; their conditions may differ. One block for each substance: values may come before it.
Experiments:
[1] = Binding of IP-10 derived short peptides to TiO2 P25 particles, absorbance at 206 nm (Experiment 2); details: Experiment 2, 50 μg/ml peptide, 25 mg TiO2, 3 h room temperature
Experimental: 5 mg of eleven peptides (Table 2) were dissolved with 1 ml of water for molecular biology (Sigma-Aldrich, St. Louis, Mo., USA). Working solutions of the different peptides were diluted further with phosphate buffered saline (PBS) (PAA Laboratories GmbH, Pasching, Austria) to 50 μg/ml. 25 mg of TiO2 (P25 from Degussa and P90 from Sigma-Aldrich) were used for the studies. Briefly, 250 μl of peptide solution was incubated with 25 mg of TiO2 powder with different particle size (P25 and P90) in an orbital shaker (IKA Vibrax VXR basic, Staufen, Germany) for 3 h at room temperature. Different controls were used and processed in parallel with the other samples: solutions with peptides alone, PBS alone and P25/P90 in PBS. After this time, all the samples were centrifuged at 13.000×g for 3 min at 20° C. 100 μl of the supernatant solution was carefully collected and placed in a 96-well UV plate and read with PowerWave™ microplate spectrophotometer from BioTek. Absorbances at 206 nm and also spectrum curves for each sample were collected and analysed.

[2] = Binding of fluorescent IP-10 short peptides to titanium foils, fluorescence microscope (Experiment 3); details: FITC-labeled peptides 50 μg/ml, 8×8 mm Ti foils, 3 h room temperature, FIG. 7
Experimental: 5 mg of the different peptides (Table 3), which were labeled with fluorescein isothiocyanate, were dissolved with 1 ml of water with molecular biology degree (Sigma-Aldrich, St. Louis, Mo., USA). Working solutions of the different peptides were diluted further with PBS (PAA Laboratories GmbH, Pasching, Austria) to 50 μg/ml. Briefly, 500 μl of peptide solution was incubated with 8×8 mm Ti foils (Sigma Aldrich, thickness 0.127 mm, 99.7%, cut into 8×8 mm^2 samples) in an orbital shaker (IKA Vibrax VXR basic, Staufen, Germany) for 3 h at room temperature. Experiments were run in duplicate.
Ti foils were rinsed twice with PBS to remove unbound labeled peptides. Remaining liquid was allowed to dry and samples were put on microscope slides. […] Two images of each surface were taken.

[3] = Binding of IP-10 derived peptides to TiO2 P90, absorbance at 206 nm (Experiment 1); details: 50 μg/mL peptide in PBS, 20 mg TiO2 P90, 3 h room temperature, FIG. 3
Experimental: This experiment was conducted to find the exact region of the IP-10 molecule that binds to titanium. In this experiment the effect of TiO2 (diameter ˜14 nm, product number P 90, Aerosil Evonic Ind.) on peptides synthesized from the IP-10 molecule by absorbance measurements using a Spektro U29-10 Hitachi spectrophotometer.
Seventeen different peptides having sequences of various portion of IP-10 were dissolved in water and thereafter diluted to working solution (50 μg/mL) in phosphate buffered saline (PBS), see Table 1 and FIG. 2.
The absorbance of the peptides bound to TiO2 surfaces P90 from Sigma-Aldrich) were measured at 206 nm using a Spektro U29-10 Hitachi spectrophotometer. Briefly, 20 mg TiO2 (P90) was incubated with 250 μl of peptide solution. After 3 h incubation on a shaking device in room temperature, with vortexing every hour, the samples were centrifuged (13 000×g, 3 min) and the supernatant was collected. As a negative control, PBS alone was used and positive control was peptide solution alone. Every sample was made in double and the experiments were repeated.

[4] = Binding of IP-10 derived short peptides to nanoparticles, absorbance at 206 nm (Experiment 7); details: 50 μg/ml peptide, 3 h room temperature, FIG. 14; for binding to TiO2 nanoparticles: 25 mg TiO2 21 nm; for binding to SiO2 particles: 25 mg SiO2 10-20 nm
Experimental: Lyophilized peptides were dissolved with water (Sigma, molecular biology degree) to a concentration of 5 mg/ml (Table 6). Working solutions of the different peptides were diluted further with PBS (PAA laboratories) to 50 μg/ml. 25 mg of TiO2 (Titanium(IV) oxide nanopowder, 21 nm particle size, catalog number 718467, Sigma-Aldrich), SiO2 (Silicon dioxide nanopowder, 10-20 nm particle size, catalog number […], Sigma-aldrich), MgO (Magnesium oxide nanopowder, <50 nm particle size, catalog number 549649, Sigma-Aldrich) were used for the studies. Briefly, 250 μl of peptide solution containing 50 μg/ml was incubated with 25 mg of the materials in an orbital shaker for 3 h at room temperature. Different controls were used and processed in parallel with the other samples: solutions with peptides alone, PBS alone and TiO2/SiO2/MgO in PBS. After this time, all the samples were centrifuged at 13.000×g for 3 min at 20° C. 100 μl of the supernatant solution was carefully collected and placed in a 96-well UV plate and read with PowerWave™ microplate spectrophotometer from BioTek. Absorbances at 206 nm and also spectrum curves for each sample were collected and analyzed.

[5] = tested on: integrin β3; experiment: Immunocytochemistry of integrin β3 in MC3T3-E1 cells on peptide-coated Ti; type: cell-based; details: FIG. 12; for integrin β3 staining: after 72 h of culture
Experimental: (§1) Under aseptic conditions, implants were immersed in a 3:7 (v/v) HNO3-DI water solution for 30 min at room temperature. Then, they were rinsed with milliQ water and placed in a covered milliQ water bath for 24 h. Implants were dried with N2 and were placed in a 96-well plates. Then, 200 μl of 50 μg/ml peptide solutions in PBS were added to each implant. Adsorption took place for 24 h at 37° C. in a humidified atmosphere. After 24 h peptide solutions were collected and surfaces were washed with 200 μl of PBS and air-dried in order to perform in vitro experiments.
(§2) MC3T3-E1 cells were routinely cultured at 37° C. in a humidified atmosphere of 5% CO2, and maintained in α-MEM supplemented with 10% FBS and antibiotics (50 IU penicillin/ml and 50 μg streptomycin/ml). 7.0×10^3 cells were seeded on the peptide-coated implants. Trypan blue stain was used to determine total and viable cell number. The same number of cells was cultured in parallel in plastic culture plates in the experiment. All experiments were performed after 4 passages of the MC3T3-E1 cells.
Cells grown for 24 and 72 h on the surfaces were fixed for 15 min with 4% formaldehyde in PBS at room temperature. Cells were incubated with 0.1% Triton X-100 for 5 min, 1% bovine serum albumin for 30 min and then with anti-integrin beta-3 antibody for 1 h at 1:50 dilution in PBS. Then, a Cy3-conjugated goat anti-rabbit IgG was used as secondary antibody for 1.5 h at 1:200 dilution in PBS. For actin cytoskeleton visualization, cells were stained with phalloidin-FITC 5 μg/mL in PBS for 30 min. Cells were washed with PBS and coin-shaped samples were placed on slides. Finally, a drop of Fluoroshield with DAPI was added and cover glasses were mounted on the samples. Two samples of each group were used to perform the experiment and two images of each sample were taken with the confocal microscope (Leica DMI 4000B equipped with Leica TCS SPE laser system).

[6] = tested on: MC3T3-E1 cells; experiment: DNA quantification (cell number) of cells on peptide-coated Ti; type: cell-based; details: 48 h culture on Ti coated with 50 μg/ml peptide, FIG. 9
Experimental: as §1, with “Absorption” for “Adsorption”, “cell” for “in vitro”, “experiments. The surfaces were denoted Ti (uncoated Ti), P1 (Ti coated with IP10-RGD), P2 (Ti coated with IP10mut-RGD), P3 (Ti coated with IP10-RGDmut) and P4 (Ti coated with IP10mut-RGDmu).” for “experiments.”
as §2, with “α-minimum essential medium (α-MEM)” for “α-MEM”, “fetal bovine serum (FBS)” for “FBS”, “15” for “4”
Culture media was removed from wells and plates were frozen at −80° C. until the experiment was carried out. At the day of analysis, 100 μl of distilled water were added to each well. Plates were incubated for 1 hour at room temperature. Again, plates were frozen at −80° C. to lysate cells. Plates were thawed until reaching room temperature and 100 μl of Hoechst 33258 at 20 μg/ml in THE buffer were added. Then, 200 μl aliquots were transferred to 96-well fluorescence plates and a spectrophotometer was set to record fluorescence. Relative fluorescence units were correlated with the cell number using a linear standard curve.

Substance: FCSEPKKKMT (IP-10 derived peptide linked to randomized tag sequence) [IP10b]
- signal from the fluorescent peptides bound to Ti [2]: lower than for IP10 but higher than for IP10r

Substance: IIATMKKKGEKRCLNPESKA (listed as Homo sapiens) [Peptide 5]
- binding to TiO2 P90 (percentage of peptides absorbed, ranking) [3]: bound most

Substance: IKNLLKAVSKERSKRSP (listed as Homo sapiens) [Peptide 6]
- binding to TiO2 P90 (percentage of peptides absorbed, ranking) [3]: bound most

Substance: KRCLN (listed as Homo sapiens) [IPE]
- binding to SiO2 particles [4]: binding
- binding to TiO2 nanoparticles [4]: binding

Substance: MKKKGEGGGGGGGGRGES (IP-10 derived peptide connected to mutated RGD motif via poly-G-linker) [Peptide P3]
- integrin β3 signal ([5]; after 24 h of culture): showed integrin β3 signal
- integrin β3 staining [5]: no clear staining; also recorded: disappeared

Substance: MTTTGEGGGGGGGGRGDS (Mutated IP-10 derived peptide connected to RGD motif via poly-G-linker) [Peptide P2]
- integrin β3 staining [5]: no clear staining

Substance: MTTTGEGGGGGGGGRGES (Mutated IP-10 derived peptide connected to mutated RGD motif via poly-G-linker) [Peptide P4]
- number of cells (DNA quantification) [6]: lowest
- number of cells (DNA quantification) ([6]; listed as double mutant peptide sequence): lastly
- integrin β3 staining [5]: no clear staining

Substance: RCLNP (listed as Homo sapiens) [IPF]
- binding to SiO2 particles [4]: binding
- binding to TiO2 nanoparticles [4]: binding

Substance: TMKKKPESCF (IP-10 derived peptide linked to randomized tag sequence) [IP10a]
- signal from the fluorescent peptides bound to Ti [2]: lower than for IP10 but higher than for IP10r

Now from value to substance, other results behind:

- binding to TiO2 particles (in words) [1]: very strong binding
Substance: ATMKK (listed as Homo sapiens) [IP1]

- binding to TiO2 particles (in words) [1]: very strong binding
Substance: KKGEI (IP-10 derived peptide) [IP5]

- binding to TiO2 particles (in words) [1]: very strong binding
- binding to TiO2 nanoparticles [4]: higher binding
Substance: KKKGE (listed as Homo sapiens) [IP4]

- binding to TiO2 particles (in words) [1]: very strong binding
- binding to TiO2 nanoparticles [4]: higher binding
Substance: MKKKG (listed as Homo sapiens) [IP3]

- signal from the fluorescent peptides bound to Ti [2]: lowest
Substance: PESCF (Randomized tag sequence) [IP10r]

- binding to TiO2 nanoparticles [4]: higher binding
Substance: TMKKK (listed as Homo sapiens) [IP2]
- binding to TiO2 particles (in words) [1]: very strong binding; also recorded: best binding sequence
